According to PMC11650849, “Brain endothelial permeability, transport, and flow assessed over 10 orders of magnitude using the in situ brain perfusion technique” (Fluids and Barriers of the CNS, 2024):
Where two headings read alike, the source gives them in different places.

How the values were obtained:
[1] = ref Hansch et al. [123], Avdeef [46] or other sources, cited from earlier work; for Log Poct: octanol partition coefficient
[2] = for Brain Kin: calculated at brain blood flow […] and rat serum fu; for Extraction (unbound) / Brain vascular extraction (total): calculated at brain blood flow […]; for Extraction (unbound): free drug; for Brain vascular extraction (total): with rat serum fu
[3] = Neutral fraction at pH 7.4 calculated from pKa; format: physicochemical; settings: neutral fraction at perfusion fluid pH 7.40, calculated from pKa
[4] = rat, in vivo, pH 7.4
[5] = rat in vivo measurements; cited from earlier work
[6] = rat
[7] = rat in vivo measurements; cited from earlier work; remark: listed apart in the source
[8] = In situ rat brain perfusion (brain uptake Kin, extraction E, BBB PS)

Compound	Log Poct [1]	Log Doct pH=7.4 [1]	Brain Kin [2]	Extraction (unbound) [2]	Brain vascular extraction (total) [2]	fn (%) [3]	Log Pc [4]	Log PoS [4]	Pc [4]	PcS [4]	PoS [4]	Log Po [4]	Po [4]	Brain Vu,br [5]	half-life ([6]; brain)	fu,.p [7]	also measured
OCCCCCCO [1,6-Hexanediol]	0.83	0.83	0.0182 mL/s/g	96.3%	75.9%	100%	−3.42	−1.42	3790 nm/s	0.038 mL/s/g	0.0379 mL/s/g	−3.42	0.000379 cm/s	1.27 mL/g	0.72 min	0.9	
Cc1c(N(C)C)c(=O)n(-c2ccccc2)n1C [Aminopyrine]			0.0201 mL/s/g	89.8%	83.9%	99.0%								1.67 mL/g	0.76 min	0.80	
OC[C@@H](O)[C@@H](O)CO [Erythritol]	−2.29	−2.29	9.27e-05 mL/s/g	0.15%	0.15%	100%	−6.49	−4.49	3.24 nm/s	3.2e-05 mL/s/g	3.24e-05 mL/s/g	−6.49	3.24e-07 cm/s	0.50 mL/g	160 min	1.00	
CNCCC(Oc1ccc(C(F)(F)F)cc1)c1ccccc1 (stereo not drawn) [Fluoxetine]	4.50		0.0105 mL/s/g	100%	21.3%	0.27%								250 mL/g	15.8 min	0.028	
CC(C(=O)O)c1ccc(-c2ccccc2)c(F)c1 (stereo not drawn) [Flurbiprofen]	3.99	0.91	0.000144 mL/s/g	61.6%	0.60%	0.06%	−3.64	1.58	2300 nm/s	0.023 mL/s/g	38.2 mL/s/g	−0.42	0.38 cm/s	7.76 mL/g	3.9 min	6.3E−03	
OCC(O)CO [Glycerol]	−1.76	−1.76	1.7e-06 mL/s/g	0.34%	0.34%	100%	−6.08	−4.08	8.29 nm/s	8.3e-05 mL/s/g	8.29e-05 mL/s/g	−6.08	8.29e-07 cm/s	1.04 mL/g	145 min	1.00	
COc1ccc2c(c1)c(CC(=O)O)c(C)n2C(=O)c1ccc(Cl)cc1 [Indomethacin]	3.51	0.68	4.37e-05 mL/s/g	27.3%	0.18%	0.05%	−4.12		766 nm/s	0.0077 mL/s/g		−0.84	0.15 cm/s	13.0 mL/g	19.6 min	5.7E−03	
O=C1Nc2ccc(Cl)cc2C(c2ccccc2Cl)=NC1O (stereo not drawn) [Lorazepam]						100%								15.87 mL/g		0.16	Log Pc ([8]; Pc in cm/s): −2.52; Log Po ([8]; Po in cm/s): −2.52; Log PoS ([8]; PoS in mL/s/g): −0.52; Pc ([8]; S assumed 100 cm^2/g): 30000 nm/s; Po ([8]; S assumed 100 cm^2/g): 30000 nm/s; PcS ([8]; cerebral cortex, flow 0.1–[…], S = physiological saline, AB = artificial blood): 0.30 mL/s/g; PoS ([8]; intrinsic PS of neutral solute, PoS = PcS/fn, flow 0.1–[…]): 0.30 mL/s/g; Maximal flow—90% extraction, PcS/2.3 ([2]; pH 7.4): 0.13 mL/s/g; half-life [6]: 1.39 min
CC(=O)[C@H]1CC[C@H]2[C@@H]3CCC4=CC(=O)CC[C@]4(C)[C@H]3CC[C@]12C [Progesterone]	3.48	3.48				100%								28.6 mL/g	0.42 min	0.03	
CC(C)NCC(O)COc1cccc2ccccc12 (stereo not drawn) [Propranolol]			0.00806 mL/s/g	98.3%	30.5%	0.74%								27.8 mL/g	3.93 min	0.09	
OC[C@H]1O[C@@](CO)(O[C@H]2O[C@H](CO)[C@@H](O)[C@H](O)[C@H]2O)[C@@H](O)[C@@H]1O [Sucrose]	−3.57	−3.57		2.00E-04%	2.00E-04%	100%								0.05 mL/g	120 min	1.00	
